SMILES strings stand for the structures.

In this assay the target is Cyclin-dependent kinase 5/CDK5 activator 1 (Homo sapiens, UniProt Q00535). The assay can be described thus: Inhibition of full length human CDK5 (1 to 292 residues)/p25 expressed in baculovirus expression system using FL peptide 29 as a substrate preincubated for 30 mins followed by substrate addition incubated for 60 mins in the presence of ATP by mobility shift assay.
Cyclin-dependent kinase 5/CDK5 activator 1, sequence (Q00535 whole entry, the tested form may be a part): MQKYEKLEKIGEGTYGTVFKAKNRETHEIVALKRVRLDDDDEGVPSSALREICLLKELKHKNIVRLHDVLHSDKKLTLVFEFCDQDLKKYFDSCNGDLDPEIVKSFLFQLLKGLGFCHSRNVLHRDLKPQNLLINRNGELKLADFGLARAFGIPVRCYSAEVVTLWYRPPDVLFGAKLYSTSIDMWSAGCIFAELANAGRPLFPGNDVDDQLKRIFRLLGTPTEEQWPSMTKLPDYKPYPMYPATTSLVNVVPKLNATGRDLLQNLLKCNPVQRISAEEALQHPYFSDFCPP
Cyclin-dependent kinase 5/CDK5 activator 1, sequence (Q15078 whole entry, further chain, the tested form may be a part): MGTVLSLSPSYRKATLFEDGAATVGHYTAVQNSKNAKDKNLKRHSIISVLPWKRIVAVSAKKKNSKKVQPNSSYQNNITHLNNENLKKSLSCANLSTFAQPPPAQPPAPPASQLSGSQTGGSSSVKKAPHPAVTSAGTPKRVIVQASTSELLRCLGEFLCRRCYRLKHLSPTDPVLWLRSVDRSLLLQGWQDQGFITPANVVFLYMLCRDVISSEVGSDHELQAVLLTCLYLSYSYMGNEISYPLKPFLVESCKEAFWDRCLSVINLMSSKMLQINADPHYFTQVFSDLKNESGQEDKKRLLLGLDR
Take `CN1CCC(S(=O)(=O)c2ccc3cnc(Nc4ccc(N5CCCS5(=O)=O)cc4)cc3n2)CC1`: the IC50 (commonly the concentration at which inhibition is half-maximal) was under 10 nM.

With `CCOC(=O)c1cccc(Nc2cc3nc(SC4CCNCC4)ccc3cn2)c1`, the half-maximal inhibitory concentration (IC50) was under 10 nM.

`CN1CCC(C(=O)c2ccc3cnc(Nc4ccc(-n5cccn5)cc4F)cc3n2)CC1`: the IC50 was under 10 nM.

`CN1CCC([C@@](C)(O)c2ccc3cnc(Nc4ccc(S(C)(=O)=O)cc4)cc3n2)CC1`: the IC50 is under 10 nM.

Take `CN1CCC(N(CC(=O)O)c2ccc3cnc(Nc4cccc(S(N)(=O)=O)c4)cc3n2)CC1`: the concentration for half-maximal inhibition (IC50) was under 10 nM.

For the compound `CN1CCC([C@@](C)(O)c2ccc3cnc(Nc4cccc(C(N)=O)c4)cc3n2)CC1`, the half-maximal inhibitory concentration (IC50) is under 10 nM.

For the origin of these results see ChEMBL document CHEMBL4831533, “Novel Substituted 1,6-Naphthyridines as CDK 5 Inhibitors for Treating Kidney Diseases” (ACS Med Chem Lett, 2021).
